Calls of active or inactive are those of the source. The calls are words filed in the database; no cut-off is given here.

Experiment [1] relates to T-24. Briefly: Induction of DNA damage in human T24 cells assessed as increase in gamma H2AX expression at 10 to 15 uM incubated for 24 hrs by Western blot analysis. Type of experiment: functional, cell-based. The following applies: dose 10-15 µM.
In experiment [2] the test system is T-24. The experiment is described as follows: Induction of DNA damage in human T24 cells assessed as increase in […] p53 expression at 10 to 15 uM incubated for 24 hrs by Western blot analysis. The format is functional, cell-based. The conditions noted are these: dose 10-15 µM.
In experiment [3] the test system is T-24. The experiment is described as follows: Induction of cell cycle arrest in human T24 cells assessed as increase in CDK1 expression at 10 to 15 uM incubated for 24 hrs by chemiluminescence based Western blotting analysis. Type of experiment: functional. The conditions noted are these: dose 10-15 µM, DDE = dose-dependent effect. In general terms: Immunoblotting shows a protein as a band on a membrane.

The subject of experiment [4] is T-24. The experiment is described as follows: Induction of mitochondrial membrane potential dysfunction in human T24 cells assessed as shrinking mitochondria at 10 uM incubated for 24 hrs by TEM analysis. Type of experiment: functional, cell-based.
Experiment [5] deals with T-24. Briefly: Induction of ROS generation in human T24 cells at 10 uM by fluorescence microscopy. The format is functional, cell-based.
Experiment [6] concerns T-24. The experiment is described as follows: Induction of mitochondrial ROS generation in human T24 cells at 10 uM measured after 24 hrs by Mitotracker Red dye based confocal microscopy method. Type of experiment: functional, cell-based.
The test system of experiment [7] is T-24. The experiment is described as follows: Induction of mitochondrial Ca2+ production in human T24 cells assessed as increase in intracellular Ca2+ concentration at 10 uM by Rhod2-AM staining based fluorescence microscopic method. The format is functional, cell-based.
Experiment [8] relates to T-24. Briefly: Induction of cell cycle arrest in human T24 cells assessed as accumulation of cells at G1 phase at 10 uM incubated for 24 hrs by propidium iodide/RNase A staining based flow cytometry analysis (reference value: 51.71 %). Type of experiment: functional. On the technique in general: A flow cytometer gives signals particle by particle.
In experiment [9] the test system is T-24. The experiment is described as follows: Induction of cell cycle arrest in human T24 cells assessed as accumulation of cells at S phase at 15 uM incubated for 24 hrs by propidium iodide/RNase A staining based flow cytometry analysis (reference value: 42.47 %). Type of experiment: functional.
Experiment [10] relates to T-24. Briefly: Induction of apoptosis in human T24 cells assessed as early apoptotic cells at 10 uM incubated for 24 hrs by Annexin-V/PI staining based flow cytometry analysis (reference value: 3.27 %). The format is functional.
Experiment [11] deals with T-24. Briefly: Induction of apoptosis in human T24 cells assessed as late apoptotic cells at 15 uM incubated for 24 hrs by Annexin-V/PI staining based flow cytometry analysis (reference value: 0.543 %). Type of experiment: functional.
Experiment [12] deals with T-24. Briefly: Induction of apoptosis in human T24 cells assessed as viable cells at 20 uM incubated for 24 hrs by Annexin-V/PI staining based flow cytometry analysis (reference value: 94.3 %). The format is functional. The following applies: read-out: Activity.
Experiment [13] has as its system T-24. The experiment is described as follows: Induction of DNA damage in human T24 cells assessed as increase in […] p53 expression at 2 to 4 uM incubated for 24 hrs by Western blot analysis. The format is functional, cell-based. The conditions noted are these: dose 2-4 µM.
The subject of experiment [14] is T-24. Briefly: Inhibition of cell migration in human T24 cells assessed as recovery of wound area at 1 uM measured after 24 hrs by wound healing assay based fluorescence microscopy. Type of experiment: functional. Further details: scale not given: the % may be the effect or the level left.
Experiment [15] relates to T-24. Briefly: Induction of mitochondrial membrane potential dysfunction in human T24 cells assessed as depolarised cells at 4 uM incubated for 24 hrs by JC-1 staining based flow cytometry (reference value: 6.20%). Type of experiment: functional.
The subject of experiment [16] is T-24. Briefly: Induction of mitochondrial membrane potential dysfunction in human T24 cells assessed as decrease in ATP production at 4 uM. Further details: scale not given: the % may be the effect or the level left. Type of experiment: functional.
For experiment [17], the system named is T-24. Briefly: Induction of ROS accumulation in human T24 cells assessed as increase in intracellular ROS level at 2 uM by […] based flow cytometry. The format is functional, cell-based.
Experiment [18] concerns T-24. The experiment is described as follows: Induction of mitochondrial ROS generation in human T24 cells at 2 uM measured after 24 hrs by DCFH-DA staining based confocal microscopy method. Type of experiment: functional, cell-based.
The test system of experiment [19] is T-24. The experiment is described as follows: Induction of apoptosis in human T24 cells assessed as increase in caspase 3 activity at 2 uM (Rvb= 3.1%). The format is functional.
Experiment [20] deals with T-24. Briefly: Induction of apoptosis in human T24 cells assessed as increase in caspase 9 activity at 4 uM (Rvb= 7.2%). The format is functional.
Experiment [21] deals with T-24. The experiment is described as follows: Induction of cell cycle arrest in human T24 cells assessed as accumulation of cells at G2/M phase at 4 uM incubated for 24 hrs by propidium iodide/RNase A staining based flow cytometry analysis (reference value: 5.82 %). Type of experiment: functional.
Experiment [22] relates to T-24. The experiment is described as follows: Induction of cell cycle arrest in human T24 cells assessed as accumulation of cells at S phase at 4 uM incubated for 24 hrs by propidium iodide/RNase A staining based flow cytometry analysis (reference value: 42.47 %). Type of experiment: functional.
For experiment [23], the system named is T-24. Briefly: Induction of apoptosis in human T24 cells assessed as late apoptotic cells at 4 uM incubated for 24 hrs by Annexin-V/PI staining based flow cytometry analysis (reference value: 0.543 %). Type of experiment: functional.
Experiment [24] relates to T-24. The experiment is described as follows: Induction of apoptosis in human T24 cells assessed as early apoptotic cells at 4 uM incubated for 24 hrs by Annexin-V/PI staining based flow cytometry analysis (reference value: 3.27 %). The format is functional.
Experiment [25] deals with T-24. Briefly: Induction of apoptosis in human T24 cells assessed as viable cells at 6 uM incubated for 24 hrs by Annexin-V/PI staining based flow cytometry analysis (reference value: 94.3 %). The format is functional. The conditions noted are these: read-out: Activity.
Experiment [26] concerns T-24. Briefly: Induction of cell cycle arrest in human T24 cells assessed as increase in CDK1 expression at 0.5 to 1 uM incubated for 24 hrs by chemiluminescence based Western blotting analysis. The format is functional. The conditions noted are these: dose 0.5-1 µM, DDE = dose-dependent effect.
For experiment [27], the system named is T-24. Briefly: Induction of mitochondrial membrane potential dysfunction in human T24 cells assessed as depolarised cells at 1 uM incubated for 24 hrs by JC-1 staining based flow cytometry (reference value: 6.20%). The format is functional.
For experiment [28], the system named is T-24. Briefly: Induction of ROS accumulation in human T24 cells assessed as increase in intracellular ROS level at 0.5 uM by […] based flow cytometry. The format is functional, cell-based.
Experiment [29] has as its system T-24. Briefly: Induction of mitochondrial Ca2+ production in human T24 cells assessed as increase in intracellular Ca2+ concentration at 0.5 uM by Rhod2-AM staining based fluorescence microscopic method. The format is functional, cell-based.
In experiment [30] the test system is T-24. The experiment is described as follows: Induction of apoptosis in human T24 cells assessed as increase in caspase 3 activity at 0.5 uM (Rvb= 3.1%). Type of experiment: functional.
In experiment [31] the test system is T-24. Briefly: Induction of apoptosis in human T24 cells assessed as increase in caspase 9 activity at 1 uM (Rvb= 7.2%). The format is functional.
The subject of experiment [32] is T-24. Briefly: Induction of cell cycle arrest in human T24 cells assessed as accumulation of cells at G1 phase at 0.5 uM incubated for 24 hrs by propidium iodide/RNase A staining based flow cytometry analysis (reference value: 51.71 %). The format is functional.
The test system of experiment [33] is T-24. The experiment is described as follows: Induction of cell cycle arrest in human T24 cells assessed as accumulation of cells at S phase at 1 uM incubated for 24 hrs by propidium iodide/RNase A staining based flow cytometry analysis (reference value: 42.47 %). The format is functional.
The subject of experiment [34] is T-24. Briefly: Induction of apoptosis in human T24 cells assessed as viable cells at 0.5 uM incubated for 24 hrs by Annexin-V/PI staining based flow cytometry analysis (reference value: 94.3 %). Type of experiment: functional. The following applies: read-out: Activity.
Experiment [35] concerns T-24. Briefly: Induction of apoptosis in human T24 cells assessed as contracted small fragmented nuclei at 0.5 uM by Hoechst33258 staining based fluorescence microscopy. The format is functional, cell-based.
Experiment [36] has as its system T-24. The experiment is described as follows: Induction of mitochondrial membrane potential dysfunction in human T24 cells assessed as increase in fragmentation at 0.5 uM incubated for 24 hrs by TEM analysis. The format is functional, cell-based.

With `O=C1c2ccccc2-c2cccc3ccnc1c23`, the result with T-24 [1], in the experiment on T-24 [2], in the experiment on T-24 [4], with T-24 [5], with T-24 [6] and with T-24 [7] was Active. In addition, the Activity entry in the experiment on T-24 [3] is “Dde”; with T-24 [8] it was 31.45%; in the experiment on T-24 [9] it was 46.29%; in the experiment with T-24 [10], 14.4%; in the experiment with T-24 [11], 6.56%. Also, the viability at 20 µM in the experiment with T-24 [12] was 56.2%.

`O=C1c2cc([N+](=O)[O-])ccc2-c2ccc([N+](=O)[O-])c3ccnc1c23`: the outcome in the experiment with T-24 [13], in the experiment on T-24 [17] and in the experiment on T-24 [18] was Active. Moreover, the Activity is reported as 20.1% with T-24 [14]; 31.3% in the experiment with T-24 [15]; 43.1% in the experiment with T-24 [16]; 24.6% with T-24 [19]; 28.9% in the experiment on T-24 [20]; 14.18% with T-24 [21]. Moreover, the Activity in the experiment with T-24 [22] was determined as 70.53%; in the experiment with T-24 [23], 5.49%; in the experiment on T-24 [24], 32.3%. Moreover, in the experiment on T-24 [25], the viability at 6 µM came out at 54.1%.

On to `O=C1c2ccccc2-c2ccc([N+](=O)[O-])c3ccnc1c23`, for which the Activity entry in the experiment on T-24 [26] was “Dde”; in the experiment with T-24 [27], 44.5%; with T-24 [30] it was 30.6%; with T-24 [31], 53.6%; in the experiment on T-24 [32], 0.58%; in the experiment with T-24 [33] it was 35.21%. The outcome in the experiment on T-24 [28], in the experiment with T-24 [29], in the experiment with T-24 [35] and in the experiment on T-24 [36] was Active. For the same compound, the viability at 0.5 µM in the experiment on T-24 [34] came out at 58.1%.
